Values of other authors in patent US20210338702A1, “A teniposide injection with high dilution stability and preparation method thereof” (JIANGSU LINGHANG BIOLOGICAL TECHNOLOGY CO., LTD., priority 2018, published 2021).

Legend:
[1] = compared with the same type of drug etoposide

- Solubility in water: almost insoluble in water
Compound: COc1cc([C@@H]2c3cc4c(cc3[C@@H](O[C@@H]3O[C@@H]5CO[C@@H](c6cccs6)O[C@H]5[C@H](O)[C@H]3O)[C@H]3COC(=O)[C@H]23)OCO4)cc(OC)c1O [Teniposide]
- Biological activity relative to etoposide [1]: 5-10 times
